Patent US20260033988A1, “SYSTEM AND METHOD FOR ULTRASOUND-ENHANCED DELIVERY OF DRUGS” (Sonikure Holdings Limited, priority 2016, published 2026)
Blank lines part the entries; values can stand above or below the compound they belong to.

Columns and labels:
[1] = tested on: experimental autoimmune uveitis (EAU); assay: In vivo delivery of dexamethasone into mice eyes for treatment of experimental autoimmune uveitis (ultrasound versus intravitreal injection)
Method: The procedure relates to an in vivo study of delivering small molecules into mice eyes for treatment of experimental autoimmune uveitis (EAU). The small molecules used were dexamethasone, with of a molecular weight of about […]. For a given animal subject, the drug was delivered via intravitreal injection (10 μg in 1 μL balanced salt solution), to the left eye. For the right eye, the drug (10 μg in 1 μL balanced salt solution, repeat 3 times) was delivered by 40 kHz ultrasound.
A timeline is illustrated of the experimental procedure. EAU mice were provided as described. The final n=2, as one mouse was dead on day 10 during the first treatment. On day 0, EAU induction occurred. Baseline imaging by confocal scanning laser ophthalmology (cSLO) and optical coherence tomography (OCT) occurred on day 0. On day 10, the drug was applied via ultrasound on the right eye. The drug was applied via intravitreal injection to the left eye. On day 13, imaging was conducted via cSLO and OCT. On days 13, 17, and 20, the drug was delivered to the right eye via ultrasound. On day 21, the mice were sacrificed for histology. Imaging was conducted by cSLO and OCT.

[2] = Ultrasound delivery of Riboflavin-5-Phosphate into porcine corneas, fluorescent measurement of extract; settings: epi-off; 0.1% solution; ultrasound 40 kHz, mechanical index 0.2, for 5 minutes or less
Method: Riboflavin-5-Phosphate (R5P), 1.5 mL, 0.1% solution was applied to a porcine eyeball, epi-off. The ultrasound parameters were 40 kHz, mechanical index 0.2. The cornea was in full contact with R5P over indicated time period. The cornea was excised and weighed. Extracted supernatant with R5P was used for fluorescent measurement.

[3] = Ultrasound delivery of riboflavin into ex vivo pig corneas; parameters: species or system porcine
Method: For example, a riboflavin molecule may be delivered into a cornea by ultrasound. An ex vivo study was conducted of delivering small molecules into porcine corneal tissue. The small molecules used was riboflavin. The small molecules may have a molecular weight of about 376 g/mol or less. By using ultrasound at 40 kHz, at least 15 μg/mL of riboflavin was delivered into the deep corneal stromal tissue.
An illustration is provided of riboflavin 1 mg/mL delivered into ex vivo pig corneas. The riboflavin concentration in μg/mL is shown for different circumstances, such as epithelium debrided (Epi-off) cornea with 30 minutes riboflavin contact, Epi-Off with 3 cycles of 90 seconds ultrasound+15 minutes breaks in between and Epi-Off with 3 cycles of 90 seconds ultrasound+5 minutes break in between. 0.1% Riboflavin solution, Peschke D was delivered in ex-vivo pig corneas. The 15 μg/mL safety threshold is exceeded by applying 3 cycles of 90 seconds ultrasound with 5 minute breaks in between.

Structure (SMILES): C[C@@H]1C[C@H]2[C@@H]3CCC4=CC(=O)C=C[C@]4(C)[C@@]3(F)[C@@H](O)C[C@]2(C)[C@@]1(O)C(=O)CO [dexamethasone]
retina injury (FFA photo and OCT sections) ([1]; left eye, intravitreal injection 10 μg in 1 μL, retinal change still existed at day 21): retina injury caused by intravitreal injection
retina injury (fundus photos, FFA) ([1]; right eye of Mouse 1 and Mouse 2, drug delivered by 40 kHz ultrasound, days 13 and 21): no injury of retina

concentration delivered into porcine corneas compared with typical Dresden protocol (30 minutes instillation) [2]: reached the therapeutic threshold
Structure (SMILES): Cc1cc2nc3c(=O)[nH]c(=O)nc-3n(C[C@H](O)[C@H](O)[C@H](O)COP(=O)(O)O)c2cc1C [Riboflavin-5-Phosphate]

riboflavin delivered into the deep corneal stromal tissue ([3]; ex vivo porcine cornea, ultrasound at 40 kHz): at least 15 μg/mL
Structure (SMILES): Cc1cc2nc3c(=O)[nH]c(=O)nc-3n(C[C@H](O)[C@H](O)[C@H](O)CO)c2cc1C [riboflavin]
riboflavin concentration in cornea versus 15 μg/mL safety threshold ([3]; ex vivo pig cornea, Epi-Off, 0.1% riboflavin solution, 3 cycles of 90 seconds ultrasound with 5 minute breaks in between): > 15 µg/mL
